Measurements reported in patent publication US20200354348A1, “SEMISYNTHETIC AURONES AND METHODS OF USE THEREOF” (University of Kentucky Research Foundation, priority 2018, published 2020).
One block for each molecule: values may come before it.

Columns and labels:
LS174T cells = assay: Proliferation inhibition assay, LS174T; type: cell-based; conditions: Homo sapiens, LS174T; for inhibition at 0.3 µM: 300 nM
Protocol: (§1) Cell Culture. LS174T (colon cancer cells), PC-3 (prostate cancer cells), MCF-7 (beast) and A549 (lung) were cultured in the medium recommended by American Type Culture Collection at 37° C. with 5% CO2 atmosphere in a water jacketed incubator. Ovcar-8 and NCI/ADR-RES are gifts from Dr. Markos Leggas. Alpha-tubulin antibodies, TRITC-conjugated anti-rabbit antibody.
(§2) Proliferation inhibition assay. Cancer cells were seeded into 24-well plates at a density of 20,000 cells per well in 1 mL of culture medium and cultured overnight at 37° C. Compounds and the vehicle control DMSO were added to the cells. After 6 days, medium was removed and 100 μL of trypsin was added. Then the cells resuspended in pbs were counted by Vi-CELL XR 2.03 (Beckman Coulter, Inc. USA). The ratio R of the number of viable cells in the compound treatment group to the number of viable cells in DMSO treatment group was taken as relative growth, and the percentage growth inhibition was calculated as: (1−R)*100. For initial testing, compounds were added to the cells at a final concentration 10 μM. Active compounds at 10 μM would be tested at lower concentrations.

PC-3 cells = assay: Proliferation inhibition assay, PC-3; type: cell-based; conditions: Homo sapiens, PC-3; for inhibition at 0.3 µM: 300 nM
Protocol: as §1, §2

SMILES: O=C1/C(=C/c2ccc3ccccc3n2)Oc2cc(O)ccc21 [Aurone 3e]
inhibition at 1 µM (LS174T cells; Table 1): 7.7 ± 9.9% | inhibition at 10 µM (LS174T cells; Table 1): 96 ± 0.9% | inhibition at 1 µM (PC-3 cells; Table 1): 26 ± 8.6% | inhibition at 10 µM (PC-3 cells; Table 1): 99 ± 0.2%

SMILES: O=C1/C(=C/c2ccc(N3CCSCC3)cc2)Oc2cc(O)ccc21 [Aurone 2d, (2Z)-6-Hydroxy-2-[(4-thiomorpholin-4-ylbenzylidene)]-1-benzofuran-3(2H)-one]
melting point: > 220 °C

SMILES: CCn1cc(/C=C2\Oc3cc(O)ccc3C2=O)c2cc(OC)ccc21 [Aurone 3l, (2Z)-2-[(1-Ethyl-5-methoxy-1H-indol-3-yl)methylene]-6-hydroxy-1-benzofuran-3(2H)-one]
melting point: 265 to 267 °C

SMILES: O=C1/C(=C/c2ccc(N3CCCC3)cc2)Oc2cc(O)ccc21 [Aurone 2a, (2Z)-6-Hydroxy-2-(4-pyrrolidin-1-ylbenzylidene)-1-benzofuran-3(2H)-one]
melting point: > 220 °C

SMILES: O=C1/C(=C/c2ccc(N3CCOCC3)cc2)Oc2cc(O)ccc21 [Aurone 2b, (2Z)-6-Hydroxy-2-(4-morpholin-4-ylbenzylidene)-1-benzofuran-3(2H)-one]
melting point: > 220 °C

SMILES: Cn1cc(/C=C2\Oc3cc(OCc4ccccc4F)ccc3C2=O)c2ccccc21 [Aurone 4d]
inhibition at 10 µM (LS174T cells; Table 2): 7.1 ± 17% | inhibition at 10 µM (PC-3 cells; Table 2): 0%

SMILES: CCn1cc(/C=C2\Oc3cc(OCc4c(Cl)cccc4Cl)ccc3C2=O)c2cc(OC)ccc21 [Aurone 4o]
inhibition at 0.3 µM (LS174T cells; Table 2): 3.3 ± 24% | inhibition at 1 µM (LS174T cells; Table 2): 7.3 ± 18% | inhibition at 10 µM (LS174T cells; Table 2): 94 ± 1.7% | inhibition at 0.3 µM (PC-3 cells; Table 2): 3.9 ± 11% | inhibition at 1 µM (PC-3 cells; Table 2): 67 ± 5.8% | inhibition at 10 µM (PC-3 cells; Table 2): 96 ± 1.1%

SMILES: COc1cccc2ccc(/C=C3\Oc4cc(O)ccc4C3=O)nc12 [Aurone 3g]
inhibition at 1 µM (LS174T cells; Table 1): 20 ± 9.1% | inhibition at 10 µM (LS174T cells; Table 1): 91 ± 2.4% | inhibition at 1 µM (PC-3 cells; Table 1): 40 ± 8.4% | inhibition at 10 µM (PC-3 cells; Table 1): 97 ± 0.8%

SMILES: COc1ccc2nc(/C=C3\Oc4cc(O)ccc4C3=O)ccc2c1 [Aurone 3f, (2Z)-6-Hydroxy-2-[(6-methoxyquinolin-2-yl)methylene]-1-benzofuran-3(2H)-one]
melting point: 269 to 271 °C

SMILES: O=C1/C(=C/c2cccnc2)Oc2cc(O)ccc21 [Aurone 3b]
inhibition at 10 µM (LS174T cells; Table 1): 11 ± 3.6% | inhibition at 10 µM (PC-3 cells; Table 1): 0%

SMILES: CCn1cc(/C=C2\Oc3cc(OCc4c(Cl)cccc4Cl)ccc3C2=O)c2ccccc21 [Aurone 4q]
inhibition at 0.3 µM (LS174T cells; Table 2): 0% | inhibition at 1 µM (LS174T cells; Table 2): 93 ± 2.5% | inhibition at 10 µM (LS174T cells; Table 2): 96% | inhibition at 0.1 µM (PC-3 cells; 100 nM, Table 2): 17 ± 6.8% | inhibition at 0.3 µM (PC-3 cells; Table 2): 75 ± 7.7% | inhibition at 1 µM (PC-3 cells; Table 2): 98 ± 1% | inhibition at 10 µM (PC-3 cells; Table 2): 97 ± 0.6%

SMILES: COc1ccc2c(c1)c(/C=C1\Oc3c(ccc(O)c3C)C1=O)cn2C [Aurone 3o, (2Z)-6-Hydroxy-2-[(5-methoxy-1-methyl-1H-indol-3-yl)methylene]-7-methyl-1-benzofuran-3(2H)-one]
melting point: 297 to 299 °C

SMILES: CCn1cc(/C=C2\Oc3cc(O)ccc3C2=O)c2ccccc21 [Aurone 3m, (2Z)-2-[(1-Ethyl-1H-indol-3-yl)methylene]-6-hydroxy-1-benzofuran-3(2H)-one]
melting point: 278 to 280 °C

SMILES: Cn1cc(/C=C2\Oc3cc(O)ccc3C2=O)c2ccccc21 [Aurone 3j, (2Z)-6-Hydroxy-2-[(1-methyl-1H-indol-3-yl)methylene]-1-benzofuran-3(2H)-one]
melting point: 272 to 274 °C

SMILES: O=C1/C(=C/c2ccnc3ccccc23)Oc2cc(O)ccc21 [Aurone 3h]
inhibition at 10 µM (LS174T cells; Table 1): 34 ± 11% | inhibition at 1 µM (PC-3 cells; Table 1): 16 ± 3.5% | inhibition at 10 µM (PC-3 cells; Table 1): 63 ± 7.2%

Second part, the molecule after the results:

melting point: 213 to 215 °C
SMILES: CCn1cc(/C=C2\Oc3cc(OCc4c(Cl)cccc4Cl)ccc3C2=O)c2ccccc21 [Aurone 4q, (2Z)-6-[(2,6-Dichlorobenzyl)oxy]-2-[(1-ethyl-1H-indol-3-yl)methylene]-1-benzofuran-3(2H)-one]

melting point: 198 to 200 °C
SMILES: CCn1cc(/C=C2\Oc3cc(OCc4c(F)cccc4Cl)ccc3C2=O)c2ccccc21 [Aurone 4p, (2Z)-6-[(2-Chloro-6-fluorobenzyl)oxy]-2-[(1-ethyl-1H-indol-3-yl)methylene]-1-benzofuran-3(2H)-one]

melting point: 206 to 208 °C
SMILES: Cn1cc(/C=C2\Oc3cc(OCc4ccccc4Cl)ccc3C2=O)c2ccccc21 [Aurone 4e, (2Z)-6-[(2-Chlorobenzyl)oxy]-2-[(1-methyl-1H-indol-3-yl)methylene]-1-benzofuran-3(2H)-one]

melting point: 241 to 243 °C
SMILES: COc1ccc2c(c1)c(/C=C1\Oc3c(ccc(OCc4c(Cl)cccc4Cl)c3C)C1=O)cn2C [Aurone 4m, (2Z)-6-[(2,6-Dichlorobenzyl)oxy]-2-[(5-methoxy-1-methyl-1H-indol-3-yl)methylene]-7-methyl-1-benzofuran-3(2H)-one]

melting point: 232 to 234 °C
SMILES: Cc1c(OCc2c(Cl)cccc2Cl)ccc2c1O/C(=C\c1cn(C)c3ccccc13)C2=O [Aurone 4i, (2Z)-6-[(2,6-Dichlorobenzyl)oxy]-7-methyl-2-[(1-methyl-1H-indol-3-yl)methylene]-1-benzofuran-3(2H)-one]
